From ChEMBL document CHEMBL5252612, “A novel selective estrogen receptor degrader induces cell cycle arrest in breast cancer via ERα degradation and the autophagy-lysosome pathway” (Bioorg Med Chem, 2023)
The source made the active and inactive calls. The calls are words filed in the database; no cut-off is given here.

How the values were obtained:
T47D [1] = experiment: Induction of cell cycle arrest in human T47D cells assessed as proportion of cells at G2 phase at 1 uM incubated for 24 hrs by flow cytometry (reference value: 24.4%); type: functional
T47D [2] = experiment: Induction of cell cycle arrest in human T47D cells assessed as proportion of cells at G2 phase at 5 uM incubated for 24 hrs by flow cytometry (reference value: 24.4%); type: functional
MCF7 [3] = experiment: Induction of cell cycle arrest in human MCF7 cells assessed as proportion of cells at S phase at 1 uM incubated for 24 hrs by flow cytometry (reference value: 27.6%); type: functional
MCF7 [4] = experiment: Induction of cell cycle arrest in human MCF7 cells assessed as proportion of cells at G2 phase at 1 uM incubated for 24 hrs by flow cytometry (reference value: 25.5%); type: functional
MCF7 [5] = experiment: Induction of cell cycle arrest in human MCF7 cells assessed as proportion of cells at G2 phase at 5 uM incubated for 24 hrs by flow cytometry (reference value: 25.5%); type: functional
MCF7 [6] = experiment: Induction of apoptosis and necrosis in human MCF7 cells incubated for 48 hrs by AnnexinV-FITC/PI staining based flow cytometry (reference value: 7.03%); type: functional
MCF7 [7] = experiment: Antitumor activity against human MCF7 cells xenografted in BALB/c nude mouse assessed as reduction in tumor volume at 2 to 4 mg/kg, ip administered every other day by caliper analysis; type: functional, organism-based; settings: dose 2-4 mg/kg
[8] = Toxicity in BALB/c nude mouse xenografted with human MCF7 cells assessed as kidney cell morphological changes at 2 to 4 mg/kg, ip administered every other day by Hematoxylin and eosin staining based analysis; type: organism-based; settings: in vivo, dose 2-4 mg/kg
[9] = biological target: T1, Estrogen receptor (Homo sapiens) (UniProt P03372); experiment: Induction of ER-alpha degradation in human T47D cells assessed as decrease in ER-alpha protein expression in presence of proteasome inhibitor, MG132 by western blot analysis; type: cell-based
T1 sequence (whole entry): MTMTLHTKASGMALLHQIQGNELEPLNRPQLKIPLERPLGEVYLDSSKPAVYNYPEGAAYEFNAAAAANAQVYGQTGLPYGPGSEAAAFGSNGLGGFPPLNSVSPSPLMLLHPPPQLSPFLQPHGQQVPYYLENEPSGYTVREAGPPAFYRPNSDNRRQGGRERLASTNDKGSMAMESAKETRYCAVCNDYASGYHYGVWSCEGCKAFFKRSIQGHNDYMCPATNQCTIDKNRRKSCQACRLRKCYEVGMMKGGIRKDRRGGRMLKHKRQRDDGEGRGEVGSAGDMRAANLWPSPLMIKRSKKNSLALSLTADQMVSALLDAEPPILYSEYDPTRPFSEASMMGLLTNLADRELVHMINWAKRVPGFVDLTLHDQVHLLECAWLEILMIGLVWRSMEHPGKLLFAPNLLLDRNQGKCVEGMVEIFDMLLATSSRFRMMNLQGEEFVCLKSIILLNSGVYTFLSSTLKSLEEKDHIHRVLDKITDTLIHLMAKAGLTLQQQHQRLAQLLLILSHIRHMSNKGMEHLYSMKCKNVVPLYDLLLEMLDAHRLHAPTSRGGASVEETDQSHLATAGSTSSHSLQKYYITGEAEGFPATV

T47D [10] = experiment: Induction of autophagy in human T47D cells assessed as increase in LC3 protein expression at 5 to 10 uM incubated for 24 hrs by western blot analysis; type: functional, cell-based; settings: dose 5-10 µM
T47D [11] = experiment: Induction of autophagy in human T47D cells assessed as increase in number of lysosomes at 1 to 10 uM by LysoTracker dye based confocal microscopy; type: functional, cell-based; settings: dose 1-10 µM
T47D [12] = experiment: Anticancer activity against ER-alpha positive human T47D cells assessed as reduction in cell viability at 10 uM measured after 48 hrs by CCK8 assay; type: functional, cell-based
T47D [13] = experiment: Anticancer activity against ER-alpha positive human T47D cells assessed as reduction in cell viability at 10 uM measured after 48 hrs in presence of autophagy inhibitor, 3-MA by CCK8 assay; type: functional, cell-based
T47D [14] = experiment: Induction of cell cycle arrest in human T47D cells assessed as proportion of cells at S phase at 10 uM incubated for 24 hrs in presence of autophagy inhibitor, 3-MA by flow cytometry (reference value: 21.4%); type: functional
T47D [15] = experiment: Induction of autophagy in human T47D cells assessed as downregulation of MYC protein expression at 5 to 10 uM incubated for 24 hrs in presence of autophagy inhibitor, CQ by western blot analysis; type: functional, cell-based; settings: dose 5-10 µM
T47D [16] = experiment: Induction of cell cycle arrest in human T47D cells transfected with empty vector assessed as proportion of cells at G2 phase at 10 uM incubated for 24 hrs by flow cytometry (reference value: 53%); type: functional
[17] = Induction of cell cycle arrest in tamoxifen-resistant human LCC2 cells assessed as proportion of cells at S phase at 1 uM by flow cytometry (reference value: 28.4%); type: functional
[18] = Induction of cell cycle arrest in tamoxifen-resistant human LCC2 cells assessed as proportion of cells at S phase at 5 uM by flow cytometry (reference value: 28.4%); type: functional
[19] = Induction of cell cycle arrest in tamoxifen-resistant human LCC2 cells assessed as proportion of cells at G2 phase at 10 uM by flow cytometry (reference value: 23.7%); type: functional
T47D [20] = experiment: Induction of autophagy in human T47D cells overexpressing ESR1 assessed as increase in autophagosome number by measuring LC3 puncta formation by immunofluorescence assay; type: functional, cell-based
[21] = biological target: T1, Estrogen receptor (Homo sapiens); experiment: Induction of ER-alpha degradation in human T47D cells assessed as decrease in ER-alpha protein expression in presence of autophagy inhibitor, CQ by western blot analysis; type: cell-based

Compound `COc1ccc(N(CC(F)(F)F)S(=O)(=O)C2CC3OC2C(c2ccc(OCCN4CCCC4)cc2)=C3c2ccc(O)cc2)cc1` (stereo unspecified) has an Activity (T47D [1]) of 23.3%, an Activity (T47D [2]) of 16.2% and an Activity (MCF7 [3]) of 15.7%. The Activity (MCF7 [4]) was 18.5%, the Activity (MCF7 [5]) was 16.5% and the Activity (MCF7 [6]) was 46.45%. For the same compound, the Activity (MCF7 [7]) was “Active”, the Activity [8] was “Non-Toxic” and the Activity [9] was “inactive”. For the same compound, the Activity (T47D [10]) was “Active”, the Activity (T47D [11]) was “Active” and the Activity (T47D [12]) was “Active”. For the same compound, the Activity (T47D [13]) was “inactive”, the Activity (T47D [14]) was 14.5% and the Activity (T47D [15]) was “inactive”. The Activity (T47D [16]) was 33.7%, the Activity [17] was 19.6% and the Activity [18] was 13%. The Activity [19] was 13%, the Activity (T47D [20]) was “Active” and the Activity [21] was “Active”.
